Reference: patent US7687514B2, “Benzimidazole derivatives” (Banyu Pharmaceuticals Co., Ltd., priority 2002, dated 2010)
Like-named read-outs stand apart in the source and are kept apart here.

Legend:
human NPY Y5 receptor = target: T1, human NPY Y5 receptor (Homo sapiens, UniProt Q15761); test: NPY binding inhibition test ([125I]peptide YY binding to membranes of NPY Y5 receptor expressing cells); conditions: 25° C., 2 hours, membrane of NPY Y5 receptor expressing cells, read-out: IC50 against specific peptide YY binding
T1 construct: expressed in transfected cells; host or cells: COS-7, CHO and LM(tk-)
T1 sequence (Q15761 1-445): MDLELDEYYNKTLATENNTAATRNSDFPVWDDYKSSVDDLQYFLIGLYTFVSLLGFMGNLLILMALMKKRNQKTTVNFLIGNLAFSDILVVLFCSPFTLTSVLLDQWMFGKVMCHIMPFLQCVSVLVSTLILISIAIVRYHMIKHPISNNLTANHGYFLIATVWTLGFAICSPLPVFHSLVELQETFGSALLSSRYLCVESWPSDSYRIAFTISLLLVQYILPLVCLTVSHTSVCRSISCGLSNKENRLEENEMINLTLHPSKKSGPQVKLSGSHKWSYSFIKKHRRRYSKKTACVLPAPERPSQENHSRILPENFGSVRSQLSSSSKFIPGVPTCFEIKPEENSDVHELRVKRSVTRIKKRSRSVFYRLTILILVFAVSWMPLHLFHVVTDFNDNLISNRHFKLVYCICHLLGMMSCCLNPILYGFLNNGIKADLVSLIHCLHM
Source text: Pharmacological Test 1 (NPY Binding Inhibition Test)
cDNA sequence encoding human NPY Y5 receptor (c.f. International patent publication number WO96/16542) was cloned into expression vectors pcDNA3, pRc/RSV (made by Invitrogen Inc.) and pCI-neo (made by Promega Inc.). The expression vectors thus obtained were transfected to host cells COS-7, CHO and LM(tk-) (American Type Culture Collection) by cationic lipid method (Proceedings of the National Academy of Sciences of the United States of America, 84: 7413(1987)) to give NPY Y5 receptor expression cells.
A membrane sample prepared from the cells which expressed NPY Y5 receptor was incubated together with a test compound and [^125I]peptide YY (made by NEN) (20,000 cpm) in an assay buffer (25 mM Tris buffer, pH 7.4, containing 10 mM magnesium chloride, 1 mM phenylmethylsulfonyl fluoride, 0.1% bacitracin and 0.5% bovine serum albumin) at 25° C. for 2 hours, then filtered through a glass filter GF/C and washed with 5 mM Tris buffer (pH 7.4) containing 0.3% BSA. The radioactivity of the cake on the glass filter was measured. Non-specific binding was measured in the presence of 1 μM peptide YY, and a 50% Inhibitory Concentration (IC50) of the test compound against specific peptide YY binding was determined (Endocrinology, 131: 2090(1992)).

[1] = Pharmacokinetics test (plasma concentration after oral or intravenous administration); type: in vivo; conditions: rat, male SD rats
Procedure: Pharmacological Test 3 (Pharmacokinetics Test)
A test compound was orally or intravenously administered to male SD rats (7-10 weeks old, 200-400 g) which abstained from food overnight. About 100 μL of blood was collected from the tail vein at predetermined time, using a heparinized capillary. The blood was centrifuged (4° C., 6,000 r.p.m., 10 minutes) to collect the plasma, to which was added 3-fold amount of ethanol containing an internal standard. The mixture was stirred, allowed to stand at −20° C. for 20 minutes, and then centrifuged (4° C., 10,000 r.p.m., 10 minutes). The supernatant was analyzed by LC/MS/MS, and the concentration of the test compound in the plasma was measured using a relative calibration curve.

[2] = Brain/cerebrospinal fluid transport test; type: in vivo, male SD rats; conditions: rat, 2 hours after oral administration (10 mg/kg); for concentration at 2 h: male, SD
Procedure: Pharmacological Test 4 (Brain/Cerebrospinal Fluid Transport Test)
A test compound was orally or intravenously administered to male SD rats (7-10 weeks old, 200-400 g), and whole blood was collected from the abdominal aorta of said rats anesthetized with ether at predetermined time, using a heparin-treated syringe. Then, the head skin was cut open, and a dental 30 G needle was inserted between the cervical vertebrae, and it was further inserted into the cavum subarachnoideale. After 50 to 100 μL cerebrospinal fluid had been collected by a 1 ml-syringe through a tube connected to said dental 30 G needle, the brain was extracted. The blood sample was centrifuged (4° C., 6,000 r.p.m., 10 minutes) to collect the plasma, to which was added 3-fold amount of ethanol containing an internal standard, and the mixture was stirred. The brain sample was homogenized after addition of 2 ml water, an aliquot of the homogenate was taken and 3-fold amount of ethanol containing an internal standard was added thereto and stirred. The cerebrospinal fluid was stirred after adding 3-fold amount of ethanol containing an internal standard. The samples thus obtained were allowed to stand at −20° C. for 20 minutes, and then centrifuged (4° C., 12,000 g, 10 minutes). The supernatant was analyzed by LC/MS/MS, and the concentration of the test compound in the plasma, brain, and cerebrospinal fluid were measured by the method using a relative calibration curve.

SMILES | IC50 (human NPY Y5 receptor) [nM] | also measured
O=C1OC2(CCC(c3nc4cnc(-c5ccccc5)nc4[nH]3)CC2)c2ccccc21 (stereo not drawn) [Example 6, trans-8-[3′-oxospiro[cyclohexane-1,1′(3′H)-isobenzofuran]-4-yl]-2-phenylpurine] | 2.2 | bioavailability ([1]; oral or intravenous administration): 78%; half-life ([1]; read-out: half-life in the blood (converted)): 3 h; concentration at 2 h ([2]; cerebrospinal fluid, read-out: concentration in the cerebrospinal fluid): 33 nM; concentration at 2 h ([2]; plasma, read-out: concentration in the plasma): 2770 nM; concentration in the brain [2]: 1.10 nmol/g
O=C1OC2(CCC(c3nc4cnc(-c5ccccc5F)nc4[nH]3)CC2)c2cnc(F)cc21 (stereo not drawn) [Example 20, Trans-8-[5-fluoro-3-oxospiro[6-azaisobenzofuran-1(3H),1′-cyclohexan]-4′-yl]-2-(2-fluorophenyl)purine] | 2.3 | 
O=C1OC2(CCC(c3nc4cnc(-c5ccccc5F)nc4[nH]3)CC2)c2ccccc21 (stereo not drawn) [Example 8, Trans-2-(2-fluorophenyl)-8-[3′-oxospiro[cyclohexane-1,1′(3′H)-isobenzofuran]-4-yl]purine] | 1.8 | 
O=C1OC2(CCC(c3nc4cnc(-c5ccc(F)cc5)nc4[nH]3)CC2)c2cnccc21 (stereo not drawn) [Example 13, Trans-2-(4-fluorophenyl)-8-[3-oxospiro[6-azaisobenzofuran-1(3H),1′-cyclohexan]-4′-yl]purine] | 2.9 | 
O=C1OC2(CCC(c3nc4cnc(-c5cc(F)ccc5F)nc4[nH]3)CC2)c2cnccc21 (stereo not drawn) [Example 17, Trans-2-(2,5-difluorophenyl)-8-[3-oxospiro[6-azaisobenzofuran-1(3H),1′-cyclohexan]-4′yl]purine] | 2.7 | 
O=C1OC2(CCC(c3nc4ccc(-c5ccccc5F)nc4[nH]3)CC2)c2cnccc21 (stereo not drawn) [Example 27, Trans-5-(2-fluorophenyl)-2-[3-oxospiro[6-azaisobenzofuran-1(3H),1′-cyclohexan]-4′-yl]imidazo[4,5-b]pyridine] | 0.72 | 
